Assay results reported in patent US8247211B2, “Glycopeptide antibiotics” (American Cyanamid Company, priority 2001, dated 2012).
In brackets after ≈: the same amount, converted by molar mass.

Experiments:
Assay in all cases: In vitro antibacterial evaluation: minimum inhibitory concentration (MIC), broth dilution method
Type in all cases: cell-based
[1] = test system: Streptococcus sp.; details: 18 hours at 35° C.
How it was run: (§1)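 Test strains, among them recent clinical isolates carrying methicillin, penicillin and/or vancomycin resistance, were inoculated at 5×10^5 CFU/mL. A broth dilution series spanning 64-0.06 μg/mL in Muller-Hinton II […] (NCCLS M7-A2) defined the MIC as the lowest growth-inhibiting concentration.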

[2] = test system: Escherichia coli; details: 18 hours at 35° C.
How it was run: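 An MIC is reported for each organism as the least concentration giving inhibition, using broth dilution over 64-0.06 μg/mL with a 5×10^5 CFU/mL inoculum.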

[3] = test system: Enterococcus sp.; details: 18 hours at 35° C.
How it was run: as §1

[4] = test system: Staphylococcus sp.
How it was run: as §1

[5] = broth dilution, inoculum 5×10^5 CFU/mL

- MIC Streptococcus agalactiae (GC 4564) ([1]; Streptococcus agalactiae (GC 4564)): <0.06 µg/mL
- MIC Streptococcus pneumoniae (ATCC 6301) ([1]; Streptococcus pneumoniae (ATCC 6301)): 0.25 µg/mL (≈ 0.177 µM)
- MIC Streptococcus pneumoniae (GC 1894) ([1]; Streptococcus pneumoniae (GC 1894)): 0.12 µg/mL (≈ 0.085 µM)
- MIC Streptococcus pneumoniae (GC 4565) ([1]; Streptococcus pneumoniae (GC 4565)): <0.06 µg/mL
- MIC Streptococcus pyogenes (GC 4563) ([1]; Streptococcus pyogenes (GC 4563)): <0.06 µg/mL
- MIC Streptococcus agalactiae (GC 4564) [1, 5]: <0.06 µg/mL
- MIC Streptococcus pneumoniae (ATCC 6301) [1, 5]: 0.25 µg/mL (≈ 0.177 µM)
- MIC Streptococcus pneumoniae (GC 1894) [1, 5]: 0.12 µg/mL (≈ 0.085 µM)
- MIC Streptococcus pneumoniae (GC 4565) [1, 5]: <0.06 µg/mL
- MIC Streptococcus pyogenes (GC 4563) [1, 5]: <0.06 µg/mL
- MIC Escherichia coli (GC 4559) ([2]; Escherichia coli (GC 4559)): 32 µg/mL (≈ 22.7 µM)
- MIC Escherichia coli (GC 4560) ([2]; Escherichia coli (GC 4560)): 2 µg/mL (≈ 1.42 µM)
- MIC Enterococcus avium (GC 4558) ([3]; Enterococcus avium (GC 4558)): 2 µg/mL (≈ 1.42 µM)
- MIC Enterococcus faecalis (ATCC 29212) ([3]; Enterococcus faecalis (ATCC 29212)): 2 µg/mL (≈ 1.42 µM)
- MIC Enterococcus faecalis (GC 2242) ([3]; Enterococcus faecalis (GC 2242)): 1 µg/mL (≈ 0.708 µM)
- MIC Enterococcus faecalis (GC 2691) ([3]; Enterococcus faecalis (GC 2691)): 2 µg/mL (≈ 1.42 µM)
- MIC Enterococcus faecalis (GC 3059) ([3]; Enterococcus faecalis (GC 3059)): 1 µg/mL (≈ 0.708 µM)
- MIC Enterococcus faecalis (GC 4552) ([3]; Enterococcus faecalis (GC 4552)): 1 µg/mL (≈ 0.708 µM)
- MIC Enterococcus faecalis (GC 4553) ([3]; Enterococcus faecalis (GC 4553)): 2 µg/mL (≈ 1.42 µM)
- MIC Enterococcus faecalis (GC 4554) ([3]; Enterococcus faecalis (GC 4554)): 1 µg/mL (≈ 0.708 µM)
- MIC Enterococcus faecalis (GC 6189) ([3]; Enterococcus faecalis (GC 6189)): 0.5 µg/mL (≈ 0.354 µM)
- MIC Enterococcus faecium (GC 2243) ([3]; Enterococcus faecium (GC 2243)): 1 µg/mL (≈ 0.708 µM)
- MIC Enterococcus faecium (GC 4556) ([3]; Enterococcus faecium (GC 4556)): 1 µg/mL (≈ 0.708 µM)
- MIC Enterococcus faecium (GC 4557) ([3]; Enterococcus faecium (GC 4557)): 2 µg/mL (≈ 1.42 µM)
- MIC Enterococcus avium (GC 4558) [3, 5]: 2 µg/mL (≈ 1.42 µM)
- MIC Enterococcus faecalis (ATCC 29212) [3, 5]: 2 µg/mL (≈ 1.42 µM)
- MIC Enterococcus faecalis (GC 2242) [3, 5]: 1 µg/mL (≈ 0.708 µM)
- MIC Enterococcus faecalis (GC 2691) [3, 5]: 2 µg/mL (≈ 1.42 µM)
- MIC Enterococcus faecalis (GC 3059) [3, 5]: 1 µg/mL (≈ 0.708 µM)
- MIC Enterococcus faecalis (GC 4552) [3, 5]: 1 µg/mL (≈ 0.708 µM)
- MIC Enterococcus faecalis (GC 4553) [3, 5]: 2 µg/mL (≈ 1.42 µM)
- MIC Enterococcus faecalis (GC 4554) [3, 5]: 1 µg/mL (≈ 0.708 µM)
- MIC Enterococcus faecalis (GC 6189) [3, 5]: 0.5 µg/mL (≈ 0.354 µM)
- MIC Enterococcus faecium (GC 2243) [3, 5]: 1 µg/mL (≈ 0.708 µM)
- MIC Enterococcus faecium (GC 4556) [3, 5]: 1 µg/mL (≈ 0.708 µM)
- MIC Enterococcus faecium (GC 4557) [3, 5]: 2 µg/mL (≈ 1.42 µM)
- MIC Staphylococcus aureus (ATCC 29213) ([4]; strain ATCC 29213): 0.5 µg/mL (≈ 0.354 µM)
- MIC Staphylococcus aureus (GC 1131) ([4]; strain GC 1131): 1 µg/mL (≈ 0.708 µM)
- MIC Staphylococcus aureus (GC 3051) ([4]; strain GC 3051): 1 µg/mL (≈ 0.708 µM)
- MIC Staphylococcus aureus (GC 3053) ([4]; strain GC 3053): 1 µg/mL (≈ 0.708 µM)
- MIC Staphylococcus aureus (GC 4541) ([4]; strain GC 4541): 0.5 µg/mL (≈ 0.354 µM)
- MIC Staphylococcus aureus (GC 4542) ([4]; strain GC 4542): 0.5 µg/mL (≈ 0.354 µM)
- MIC Staphylococcus aureus-SMITH (GC 4543) ([4]; strain GC 4543): 0.5 µg/mL (≈ 0.354 µM)
- MIC Staphylococcus aureus (GC 4544) ([4]; strain GC 4544): 2 µg/mL (≈ 1.42 µM)
- MIC Staphylococcus aureus (GC 4545) ([4]; strain GC 4545): 1 µg/mL (≈ 0.708 µM)
- MIC Coagulase Negative Staphylococcus (GC 4547) ([4]; strain GC 4547): 1 µg/mL (≈ 0.708 µM)
- MIC Coagulase Negative Staphylococcus (GC 4548) ([4]; strain GC 4548): 0.5 µg/mL (≈ 0.354 µM)
- MIC Coagulase Negative Staphylococcus (GC 4549) ([4]; strain GC 4549): 0.5 µg/mL (≈ 0.354 µM)
- MIC Coagulase Negative Staphylococcus (GC 4551) ([4]; strain GC 4551): 1 µg/mL (≈ 0.708 µM)
- MIC Coagulase Negative Staphylococcus (GC 6257) ([4]; strain GC 6257): 0.5 µg/mL (≈ 0.354 µM)
SMILES: CCCC(C)C1OCC2OC(OC3C(CO)OC(Oc4ccc(CC5NC(=O)C(C(C)c6ccc(Cl)cc6)NC(=O)CNC(=O)C(CO)NC(=O)C(C(O)C6CNC(=N)N6C6OC(CO)C(O)C(O)C6O)NC(=O)C(C(O)C6CNC(=N)N6)NC5=O)cc4)C(O)C3O)C(O)C(O)C2O1 (stereo not drawn) [Example 194, Cyclo[glycyl-4-chloro-β-methylphenylalanyl-O-[4-O-[4,6-O-(2-methylpentylidene)hexopyranosyl]hexopyranosyl]tyrosyl-3-(2-iminoimidazolidin-4-yl)seryl-3-(3-hexopyranosyl-2-iminoimidazolidin-4-yl)serylseryl]]
- MIC Staphylococcus haemolyticus (GC 4546) ([4]; strain GC 4546): 0.5 µg/mL (≈ 0.354 µM)
